Measured values as given in US12384786B2 (MINGHUI PHARMACEUTICAL (SHANGHAI) LIMITED, priority 2019, dated 2025).
Like-named read-outs stand apart in the source and are kept apart here. Each block holds one molecule with its values, some of them ahead of it.

How the values were obtained:
[1] = molecular target: Full-length human BTK (Homo sapiens (Human), UniProt Q06187); assay: BTK inhibitory activity, Reaction Biology Corporation kinase assay; details: for inhibition at 0.005 µM: read-out: BTK inhibitory rate(%)
[2] = molecular target: Full-length human BTK (C481S) (Homo sapiens (Human), UniProt Q06187, C481S); assay: BTK (C481S) inhibitory activity, Reaction Biology Corporation kinase assay; details: for inhibition at 0.005 µM: read-out: BTK(C481S) inhibitory rate(%)
[3] = system: TMD8 cells (Human diffuse large B lymphoma cells); assay: CellTiter-Glo TMD8 inhibitory activity; assay type: cell-based; details: cultured in vitro
Description: CellTiter-Glo kit was used to test the TMD8 inhibitory activity of compounds of examples on Human diffuse large B lymphoma cells cultured in vitro. IC50 values were shown below.

[4] = IC50(nM) BTK, (d) ATP concentration 50 μM
[5] = IC50(nM) BTK(C481S), (d) ATP concentration 50 μM
[6] = read-out: IC50(nM) BTK, (a) ATP concentration 30 μM
[7] = read-out: IC50(nM) BTK, (d) ATP concentration 50 μM
[8] = read-out: IC50(nM) BTK(C481S), (d) ATP concentration 50 μM

Full-length human BTK, sequence (Q06187 whole entry): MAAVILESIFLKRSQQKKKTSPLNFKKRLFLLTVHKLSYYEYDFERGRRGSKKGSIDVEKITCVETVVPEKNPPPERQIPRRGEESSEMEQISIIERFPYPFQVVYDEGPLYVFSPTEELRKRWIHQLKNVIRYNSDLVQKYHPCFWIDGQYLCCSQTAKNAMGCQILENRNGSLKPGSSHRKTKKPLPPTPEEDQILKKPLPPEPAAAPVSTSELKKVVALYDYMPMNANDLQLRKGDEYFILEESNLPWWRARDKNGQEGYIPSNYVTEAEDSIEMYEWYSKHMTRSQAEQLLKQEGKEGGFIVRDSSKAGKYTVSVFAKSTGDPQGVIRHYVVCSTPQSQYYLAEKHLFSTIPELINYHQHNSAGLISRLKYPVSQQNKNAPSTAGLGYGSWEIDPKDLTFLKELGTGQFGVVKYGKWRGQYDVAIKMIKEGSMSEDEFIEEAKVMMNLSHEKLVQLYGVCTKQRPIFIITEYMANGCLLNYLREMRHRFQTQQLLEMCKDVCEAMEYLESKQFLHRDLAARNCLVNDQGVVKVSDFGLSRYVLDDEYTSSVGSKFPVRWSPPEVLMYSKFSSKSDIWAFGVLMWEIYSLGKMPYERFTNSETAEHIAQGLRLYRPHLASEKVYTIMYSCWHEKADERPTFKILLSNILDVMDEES
Full-length human BTK (C481S), sequence (Q06187 whole entry C481S): as the sequence (Q06187 whole entry) above, with C481S counted along it

Structure (SMILES): Nc1ncnc2c1c(-c1ccc(Oc3ccccc3)cc1)nn2[C@@H]1CCC[C@H](O)C1 [Example 2, (1S, 3R)-3-(4-amino-3-(4-phenoxyphenyl)-1H-pyrazolo[3,4-d]pyrimidin-1-yl) cyclohex-1-ol]
inhibition at 0.005 µM [1]: 50%

Structure (SMILES): C[C@]1(O)CCC[C@@H](n2nc(-c3ccc(Oc4ccccc4)cc3)c3c(N)ncnc32)C1 [Example 3A, (1s, 3R)-3-(4-amino-3-(4-phenoxyphenyl)-1H-pyrazolo[3,4-d]pyrimidin-1-yl)-1-methylcyclohexane-1-ol]
IC50 [3]: 208 nM

Structure (SMILES): C[C@@]1(O)CCC[C@@H](n2nc(-c3ccc(Oc4ccccc4)cc3)c3c(N)ncnc32)C1 [Example 3B, (1R, 3R)-3-(4-amino-3-(4-phenoxyphenyl)-1H-pyrazolo[3,4-d]pyrimidin-1-yl)-1-methylcyclohexane-1-ol]
IC50 [3]: 200 nM

Structure (SMILES): Nc1ncnc2c1c(-c1ccc(Oc3ccccc3)cc1)nn2C1CCC(O)C1 (centres unmarked) [Example 5]
inhibition at 0.005 µM [1]: 62% | IC50 [3]: 29 nM | inhibition at 0.005 µM [2]: 53%

Structure (SMILES): CC1(O)CCC(n2nc(-c3ccc(Oc4ccccc4)cc3)c3c(N)ncnc32)C1 (centres unmarked) [Example 6, 3-(4-amino-3-(4-phenoxyphenyl)-1H-pyrazolo[3,4-d]pyrimidin-1-yl)-1-methylcyclopentanol]
inhibition at 0.005 µM [1]: 70% | IC50 [3]: 17 nM | inhibition at 0.005 µM [2]: 63%

Structure (SMILES): Nc1ncnc2c1c(-c1ccc(Oc3ccccc3)cc1)nn2C1CCC(O)(C(F)(F)F)C1 (centres unmarked) [Example 7, 3-(4-amino-3-(4-phenoxyphenyl)-1H-pyrazolo[3,4-d]pyrimidin-1-yl)-1-(trifluoromethyl) Cyclopentanol]
IC50 [3]: 504 nM

Structure (SMILES): Nc1ncnc2c1c(-c1ccc(Oc3ccccc3)cc1)nn2[C@H]1CC[C@@H](O)CC1 [Example 8A, (1s, 4S)-4-(4-amino-3-(4-phenoxyphenyl)-1H-pyrazolo[3,4-d]pyrimidin-1-yl) cyclohexane-1-ol]
inhibition at 0.005 µM [1]: 82% | IC50 [3]: 90 nM | inhibition at 0.005 µM [2]: 66%

Structure (SMILES): C[C@]1(O)CC[C@@H](n2nc(-c3ccc(Oc4ccccc4)cc3)c3c(N)ncnc32)CC1 [Example 9A, (1s,4s)-4-(4-amino-3-(4-phenoxyphenyl)-1H-pyrazolo[3,4-d]pyrimidin-1-yl]-1-methylcyclohexane-1-ol]
inhibition at 0.005 µM [1]: 57% | IC50 [3]: 72 nM | inhibition at 0.005 µM [2]: 77%

Structure (SMILES): C[C@]1(O)CC[C@H](n2nc(-c3ccc(Oc4ccccc4)cc3)c3c(N)ncnc32)CC1 [Example 9B, (1r,4r)-4 (4-amino-3-(4-phenoxyphenyl)-1H-pyrazolo[3,4-d]pyrimidin-1-yl]-1-methylcyclohexane-1-ol]
inhibition at 0.005 µM [1]: 46% | IC50 [3]: 37 nM | inhibition at 0.005 µM [2]: 63%

Structure (SMILES): Nc1ncnc2c1c(-c1ccc(Oc3ccccc3)cc1)nn2C1CCC(O)(C2CC2)CC1 (centres unmarked) [Example 10, 4-(4-amino-3-(4-phenoxyphenyl)-1H-pyrazolo[3,4-d]pyrimidin-1-yl]-1-cyclopropylcyclohexane-1-ol]
inhibition at 0.005 µM [1]: 63% | IC50 [3]: 145 nM | inhibition at 0.005 µM [2]: 72%

Structure (SMILES): Nc1ncnc2c1c(-c1ccc(Oc3cccc(F)c3)cc1)nn2[C@@H]1CCC[C@@H](O)C1 [Example 15]
inhibition at 0.005 µM [1]: 55% | IC50 ([1]; read-out: IC50(nM) BTK, (c) ATP concentration 10 μM): 3.8 nM | IC50 ([2]; read-out: IC50(nM) BTK(C481S), (c) ATP concentration 10 μM): 1.7 nM

Structure (SMILES): Nc1ncnc2c1c(-c1ccc(Oc3ccccc3)cc1F)nn2[C@@H]1CCC[C@@H](O)C1 [Example 16, (1R, 3R)-3-(4-amino-3-(2-fluoro-4-phenoxyphenyl)-1H-pyrazolo[3,4-d]pyrimidin-1-yl)cyclohex-1-ol]
IC50 [1, 6]: 18.8 nM | IC50 [3]: 41 nM

More lines, now with the values ahead:

IC50 [1, 4]: 3.8 nM | IC50 [2, 5]: 3.7 nM
Structure (SMILES): COc1cccc(Oc2ccc(-c3nn(C4CCC(CO)OC4)c4ncnc(N)c34)cc2)c1F (single isomer, unassigned) [Example 30 Peak1-1, (5-(4-amino-3-(4-(2-fluoro-3-methoxyphenoxy)phenyl)-1H-pyrazolo[3,4-d]pyrimidin-1-yl)tetrahydro-2 h-pyran-2-yl)methanol]

IC50 [1, 4]: 8.5 nM | IC50 [2, 5]: 6.7 nM
Structure (SMILES): COc1cccc(Oc2ccc(-c3nn(C4CCC(CO)OC4)c4ncnc(N)c34)cc2)c1F (single isomer, unassigned) [Example 30 Peak1-2, (5-(4-amino-3-(4-(2-fluoro-3-methoxyphenoxy)phenyl)-1H-pyrazolo[3,4-d]pyrimidin-1-yl)tetrahydro-2 h-pyran-2-yl)methanol]

IC50 [1, 4]: 1.8 nM | IC50 [2, 5]: 1.1 nM
Structure (SMILES): COc1cccc(Oc2ccc(-c3nn(C4CCC(CO)OC4)c4ncnc(N)c34)cc2)c1F (single isomer, unassigned) [Example 30 Peak2-1, (5-(4-amino-3-(4-(2-fluoro-3-methoxyphenoxy)phenyl)-1H-pyrazolo[3,4-d]pyrimidin-1-yl)tetrahydro-2 h-pyran-2-yl)methanol]

IC50 [1, 4]: 5 nM | IC50 [2, 5]: 2.8 nM
Structure (SMILES): COc1cccc(Oc2ccc(-c3nn(C4CCC(CO)OC4)c4ncnc(N)c34)cc2)c1F (single isomer, unassigned) [Example 30 Peak2-2, (5-(4-amino-3-(4-(2-fluoro-3-methoxyphenoxy)phenyl)-1H-pyrazolo[3,4-d]pyrimidin-1-yl)tetrahydro-2 h-pyran-2-yl)methanol]

IC50 [1, 6]: 24.1 nM | IC50 [3]: 33 nM
Structure (SMILES): Nc1ncnc2c1c(-c1ccc(Oc3ccccc3F)cc1)nn2[C@@H]1CCC[C@@H](O)C1 [Example 17, (1R,3R)-3-(4-amino-3-(4-(2-fluorophenoxy)phenyl)-1H-pyrazolo[3,4-d]pyrimidin-1-yl)cyclohex-1-ol]

IC50 [1, 6]: 49.1 nM | IC50 [3]: 183 nM
Structure (SMILES): Nc1ncnc2c1c(-c1ccc(Oc3c(F)cccc3F)cc1)nn2[C@@H]1CCC[C@@H](O)C1 [Example 18, (1R, 3R)-3-(4-amino-3-(4-(2,6-difluorophenoxy)phenyl)-1H-pyrazolo[3,4-d]pyrimidin-1-yl)cyclohex-1-ol]

IC50 [1, 6]: 24.9 nM | IC50 [3]: 0.5 nM
Structure (SMILES): COc1cccc(Oc2ccc(-c3nn([C@@H]4CCC[C@@H](O)C4)c4ncnc(N)c34)cc2)c1F [Example 19, (1R, 3R)-3-(4-amino-3-(4-(2-fluoro-3-methoxyphenoxy)phenyl)-1H-pyrazolo[3,4-d]pyrimidin-1-yl)cyclohex-1-ol]

IC50 ([1]; read-out: IC50(nM) BTK, (b) ATP concentration 100 μM): 5 nM | IC50 [3]: 8.6 nM | IC50 ([2]; read-out: IC50(nM) BTK(C481S), (b) ATP concentration 100 μM): 0.9 nM
Structure (SMILES): COc1cccc(Oc2ccc(-c3nn([C@H]4CC[C@@H](O)CC4)c4ncnc(N)c34)cc2)c1F [Example 20, (1s,4s)-4-(4-amino-3-(4-(2-fluoro-3-methoxyphenoxy)phenyl)-1H-pyrazolo[3,4-d]pyrimidin-1-yl)cyclohex-1-ol]

IC50 [1, 6]: 16 nM
Structure (SMILES): COc1cccc(Oc2ccc(-c3nn([C@H]4CC[C@H](O)CC4)c4ncnc(N)c34)cc2)c1F [Example 21, (1r, 4r)-4-(4-amino-3-(4-(2-fluoro-3-methoxyphenoxy)phenyl)-1H-pyrazolo[3,4-d]pyrimidin-1-yl)cyclohex-1-ol]

IC50 [3]: 8 nM
Structure (SMILES): COc1cccc(Oc2ccc(-c3nn(C4CCC(O)C4)c4ncnc(N)c34)cc2)c1F (centres unmarked) [Example 22, 3-(4-amino-3-(4-(2-fluoro-3-methoxyphenoxy)phenyl)-1H-pyrazolo[3,4-d]pyrimidin-1-yl)cyclopentane-1-ol]

IC50 [1, 6]: 26.9 nM
Structure (SMILES): Nc1ncnc2c1c(-c1ccc(Oc3cccc(F)c3)cc1)nn2C1CCC(O)C1 (centres unmarked) [Example 25, 3-(4-amino-3-(4-(3-fluorophenoxy)phenyl)-1H-pyrazolo[3,4-d]pyrimidin-1-yl) cyclopentane-1-ol]

IC50 [1, 7]: 1.7 nM | IC50 [2, 8]: 0.6 nM
Structure (SMILES): COc1cccc(Oc2ccc(-c3nn(C4CCC(O)C(O)C4)c4ncnc(N)c34)cc2)c1F (centres unmarked) [Example 28, 4-(4-amino-3-(4-(2-fluoro-3-methoxyphenoxy)phenyl)-1H-pyrazolo[3,4-d]pyrimidin-1-yl)cyclohexane-1,2-diol]

IC50 [1, 6]: 64.1 nM
Structure (SMILES): COc1cccc(Oc2ccc(-c3nn(C4CCCCC4)c4ncnc(N)c34)cc2)c1F [Example 29, 1-cyclohexyl-3-(4-(2-fluoro-3-methoxyphenoxy)phenyl)-1H-pyrazolo[3,4-d]pyrimidin-4-amine, reference compound]

IC50 [1, 7]: 2.6 nM | IC50 [2, 8]: 0.9 nM
Structure (SMILES): COc1cccc(Oc2ccc(-c3nn([C@H]4CCC[C@H](O)C4)c4ncnc(N)c34)cc2)c1F [Example 32, (1S,3S)-3-(4-amino-3-(4-(2-fluoro-3-methoxyphenoxy)phenyl)-1H-pyrazolin[3,4-d]pyrimidin-1-yl)cyclohexanol]

IC50 [1, 6]: 19.2 nM
Structure (SMILES): Nc1ncnc2c1c(-c1ccc(Oc3cccc(O)c3F)cc1)nn2[C@@H]1CCC[C@@H](O)C1 [Example 33, (1R,3R)-3-(4-(4-amino-1-(3-hydroxycyclohexyl)-1H-pyrazolo[3,4-d]pyrimidin-3-yl)phenoxy)-2-fluorophenol]
